PMC7490411 (Signal Transduction and Targeted Therapy, 2020)

Legend:
BLK = molecular target: T1, BLK (Homo sapiens, UniProt P51451); assay: ADP-Glo biochemical kinase assay
T1 construct: purchased Invitrogen (Carlsbad, CA, USA)
From the text: (§1) The biochemical tests of BMX, BLK, JAK3, TXK, HER2, HER4, ITK, EGFR, and BTK were provided by Invitrogen (Carlsbad, CA, USA).

BMX = molecular target: T2, BMX (Homo sapiens, UniProt P51813); assay: ADP-Glo biochemical kinase assay
T2 construct: purchased Invitrogen (Carlsbad, CA, USA)
T2 sequence (P51813 1-675): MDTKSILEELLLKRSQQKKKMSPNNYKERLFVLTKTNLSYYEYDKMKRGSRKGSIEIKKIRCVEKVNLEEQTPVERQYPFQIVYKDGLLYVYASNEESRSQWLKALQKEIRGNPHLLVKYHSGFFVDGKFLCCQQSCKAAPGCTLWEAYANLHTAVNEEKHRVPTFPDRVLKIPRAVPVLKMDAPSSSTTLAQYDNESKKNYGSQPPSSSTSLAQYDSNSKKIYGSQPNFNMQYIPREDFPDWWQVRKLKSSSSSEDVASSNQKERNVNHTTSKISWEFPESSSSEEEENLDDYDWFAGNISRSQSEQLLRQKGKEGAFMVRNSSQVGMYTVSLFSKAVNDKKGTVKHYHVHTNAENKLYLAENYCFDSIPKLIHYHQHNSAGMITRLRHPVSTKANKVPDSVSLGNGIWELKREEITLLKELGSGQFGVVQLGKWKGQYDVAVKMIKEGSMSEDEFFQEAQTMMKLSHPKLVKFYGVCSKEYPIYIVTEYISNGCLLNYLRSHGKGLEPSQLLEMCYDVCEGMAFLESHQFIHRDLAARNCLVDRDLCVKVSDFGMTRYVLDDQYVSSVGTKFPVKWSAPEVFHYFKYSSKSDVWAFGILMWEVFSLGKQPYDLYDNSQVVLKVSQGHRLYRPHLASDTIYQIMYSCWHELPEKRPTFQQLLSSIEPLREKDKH
From the text: as §1

EGFR = molecular target: T3, EGFR (Homo sapiens, UniProt P00533); assay: ADP-Glo biochemical kinase assay
T3 construct: purchased Invitrogen (Carlsbad, CA, USA)
From the text: as §1

HER2 = molecular target: T4, HER2 (Homo sapiens, UniProt P04626); assay: ADP-Glo biochemical kinase assay
T4 construct: purchased Invitrogen (Carlsbad, CA, USA)
From the text: as §1

HER4 = molecular target: T5, HER4 (Homo sapiens, UniProt Q15303); assay: ADP-Glo biochemical kinase assay
T5 construct: purchased Invitrogen (Carlsbad, CA, USA)
From the text: as §1

ITK = molecular target: T6, ITK (Homo sapiens, UniProt Q08881); assay: ADP-Glo biochemical kinase assay
T6 construct: purchased Invitrogen (Carlsbad, CA, USA)
T6 sequence (Q08881 1-620): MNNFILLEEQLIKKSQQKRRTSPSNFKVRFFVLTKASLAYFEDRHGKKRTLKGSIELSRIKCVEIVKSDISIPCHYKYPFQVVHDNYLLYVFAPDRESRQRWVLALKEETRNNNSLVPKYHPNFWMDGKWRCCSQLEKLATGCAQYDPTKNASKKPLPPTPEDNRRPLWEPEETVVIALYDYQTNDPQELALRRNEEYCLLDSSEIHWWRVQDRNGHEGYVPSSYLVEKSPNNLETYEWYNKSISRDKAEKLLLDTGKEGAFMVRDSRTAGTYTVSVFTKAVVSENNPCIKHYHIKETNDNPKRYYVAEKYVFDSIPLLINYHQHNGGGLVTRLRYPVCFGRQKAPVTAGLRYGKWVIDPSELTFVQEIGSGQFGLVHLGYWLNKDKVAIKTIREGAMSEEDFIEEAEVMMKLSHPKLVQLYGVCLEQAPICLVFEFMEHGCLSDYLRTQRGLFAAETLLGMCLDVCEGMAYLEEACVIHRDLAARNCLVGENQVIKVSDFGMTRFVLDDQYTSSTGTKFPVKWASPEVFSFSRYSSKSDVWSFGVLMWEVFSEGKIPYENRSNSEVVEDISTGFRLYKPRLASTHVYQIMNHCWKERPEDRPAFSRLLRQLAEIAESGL
From the text: as §1

JAK3 = molecular target: T7, JAK3 (Homo sapiens, UniProt P52333); assay: ADP-Glo biochemical kinase assay; details: read-out: IC50 against JAK3
T7 construct: purchased Invitrogen (Carlsbad, CA, USA)
From the text: as §1

TXK = molecular target: T8, TXK (Homo sapiens, UniProt P42681); assay: ADP-Glo biochemical kinase assay; details: read-out: IC50 against TXK
T8 construct: purchased Invitrogen (Carlsbad, CA, USA)
From the text: as §1

ASK1 = assay: KINOMEscan; type: binding; details: 1000 nM
CDK3 = assay: KINOMEscan; type: binding; details: 1000 nM
CDKL1 = assay: KINOMEscan; type: binding; details: 1000 nM
CSNK1E = assay: KINOMEscan; type: binding; details: 1000 nM
DRAK1 = assay: KINOMEscan; type: binding; details: 1000 nM
DYRK2 = assay: KINOMEscan; type: binding; details: 1000 nM
FLT3(D835Y) = assay: KINOMEscan; type: binding; details: 1000 nM
GRK1 = assay: KINOMEscan; type: binding; details: 1000 nM
KIT(D816V) = assay: KINOMEscan; type: binding; details: 1000 nM
KIT(V559D,T670I) = assay: KINOMEscan; type: binding; details: 1000 nM
KIT-autoinhibited = assay: KINOMEscan; type: binding; details: 1000 nM
MAP3K2 = assay: KINOMEscan; type: binding; details: 1000 nM
MEK1 = assay: KINOMEscan; type: binding; details: 1000 nM
NEK7 = assay: KINOMEscan; type: binding; details: 1000 nM
PRKCH = assay: KINOMEscan; type: binding; details: 1000 nM
PYK2 = assay: KINOMEscan; type: binding; details: 1000 nM
SRC = assay: KINOMEscan; type: binding; details: 1000 nM
STK35 = assay: KINOMEscan; type: binding; details: 1000 nM
TGFBR2 = assay: KINOMEscan; type: binding; details: 1000 nM
TLK1 = assay: KINOMEscan; type: binding; details: 1000 nM
WEE1 = assay: KINOMEscan; type: binding; details: 1000 nM

T1 sequence (P51451 whole entry): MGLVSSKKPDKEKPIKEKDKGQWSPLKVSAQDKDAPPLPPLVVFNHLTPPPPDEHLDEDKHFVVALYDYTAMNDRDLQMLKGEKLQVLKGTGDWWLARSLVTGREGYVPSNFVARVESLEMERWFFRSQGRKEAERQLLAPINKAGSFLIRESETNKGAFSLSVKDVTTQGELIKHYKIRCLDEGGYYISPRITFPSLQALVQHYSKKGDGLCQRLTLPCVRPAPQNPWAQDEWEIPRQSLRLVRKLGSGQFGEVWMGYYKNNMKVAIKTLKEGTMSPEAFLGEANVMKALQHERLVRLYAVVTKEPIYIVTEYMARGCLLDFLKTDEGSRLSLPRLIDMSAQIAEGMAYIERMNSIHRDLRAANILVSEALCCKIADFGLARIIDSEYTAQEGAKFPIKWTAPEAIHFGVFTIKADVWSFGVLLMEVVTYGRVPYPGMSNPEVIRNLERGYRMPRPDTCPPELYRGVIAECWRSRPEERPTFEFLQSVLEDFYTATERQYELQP
T5 sequence (Q15303 26-1308): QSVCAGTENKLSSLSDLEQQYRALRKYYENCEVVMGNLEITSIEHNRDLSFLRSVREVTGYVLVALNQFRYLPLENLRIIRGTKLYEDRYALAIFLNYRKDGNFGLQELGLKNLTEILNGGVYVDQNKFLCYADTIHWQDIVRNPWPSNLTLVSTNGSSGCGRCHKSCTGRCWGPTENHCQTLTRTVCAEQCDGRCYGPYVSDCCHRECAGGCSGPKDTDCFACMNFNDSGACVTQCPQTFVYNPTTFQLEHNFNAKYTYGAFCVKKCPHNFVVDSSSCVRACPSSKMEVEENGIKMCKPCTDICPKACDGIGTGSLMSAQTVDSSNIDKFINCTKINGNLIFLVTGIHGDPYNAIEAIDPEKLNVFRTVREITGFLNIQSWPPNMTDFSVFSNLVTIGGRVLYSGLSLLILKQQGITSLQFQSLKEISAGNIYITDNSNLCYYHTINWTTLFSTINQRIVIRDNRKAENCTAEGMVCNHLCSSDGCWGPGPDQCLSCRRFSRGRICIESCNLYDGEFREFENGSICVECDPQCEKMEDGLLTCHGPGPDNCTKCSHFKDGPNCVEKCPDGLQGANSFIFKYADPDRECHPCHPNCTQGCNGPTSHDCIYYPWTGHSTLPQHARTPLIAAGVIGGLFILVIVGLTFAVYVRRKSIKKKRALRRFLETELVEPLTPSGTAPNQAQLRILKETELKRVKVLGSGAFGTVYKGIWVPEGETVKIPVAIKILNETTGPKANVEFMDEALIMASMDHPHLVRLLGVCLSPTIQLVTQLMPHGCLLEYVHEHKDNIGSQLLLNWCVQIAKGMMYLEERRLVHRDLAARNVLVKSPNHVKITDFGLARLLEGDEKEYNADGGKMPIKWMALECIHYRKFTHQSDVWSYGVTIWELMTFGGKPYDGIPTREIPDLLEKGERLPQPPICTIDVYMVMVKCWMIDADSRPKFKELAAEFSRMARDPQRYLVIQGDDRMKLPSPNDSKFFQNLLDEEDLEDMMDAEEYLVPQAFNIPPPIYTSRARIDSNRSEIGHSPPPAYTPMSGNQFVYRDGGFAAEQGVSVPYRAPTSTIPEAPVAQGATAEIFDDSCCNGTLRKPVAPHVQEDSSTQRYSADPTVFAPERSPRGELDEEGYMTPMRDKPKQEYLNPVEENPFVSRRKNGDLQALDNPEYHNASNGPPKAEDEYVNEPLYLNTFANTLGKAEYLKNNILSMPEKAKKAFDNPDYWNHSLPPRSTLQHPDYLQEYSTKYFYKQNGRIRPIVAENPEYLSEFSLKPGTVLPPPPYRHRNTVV
T4 sequence (P04626 23-1255): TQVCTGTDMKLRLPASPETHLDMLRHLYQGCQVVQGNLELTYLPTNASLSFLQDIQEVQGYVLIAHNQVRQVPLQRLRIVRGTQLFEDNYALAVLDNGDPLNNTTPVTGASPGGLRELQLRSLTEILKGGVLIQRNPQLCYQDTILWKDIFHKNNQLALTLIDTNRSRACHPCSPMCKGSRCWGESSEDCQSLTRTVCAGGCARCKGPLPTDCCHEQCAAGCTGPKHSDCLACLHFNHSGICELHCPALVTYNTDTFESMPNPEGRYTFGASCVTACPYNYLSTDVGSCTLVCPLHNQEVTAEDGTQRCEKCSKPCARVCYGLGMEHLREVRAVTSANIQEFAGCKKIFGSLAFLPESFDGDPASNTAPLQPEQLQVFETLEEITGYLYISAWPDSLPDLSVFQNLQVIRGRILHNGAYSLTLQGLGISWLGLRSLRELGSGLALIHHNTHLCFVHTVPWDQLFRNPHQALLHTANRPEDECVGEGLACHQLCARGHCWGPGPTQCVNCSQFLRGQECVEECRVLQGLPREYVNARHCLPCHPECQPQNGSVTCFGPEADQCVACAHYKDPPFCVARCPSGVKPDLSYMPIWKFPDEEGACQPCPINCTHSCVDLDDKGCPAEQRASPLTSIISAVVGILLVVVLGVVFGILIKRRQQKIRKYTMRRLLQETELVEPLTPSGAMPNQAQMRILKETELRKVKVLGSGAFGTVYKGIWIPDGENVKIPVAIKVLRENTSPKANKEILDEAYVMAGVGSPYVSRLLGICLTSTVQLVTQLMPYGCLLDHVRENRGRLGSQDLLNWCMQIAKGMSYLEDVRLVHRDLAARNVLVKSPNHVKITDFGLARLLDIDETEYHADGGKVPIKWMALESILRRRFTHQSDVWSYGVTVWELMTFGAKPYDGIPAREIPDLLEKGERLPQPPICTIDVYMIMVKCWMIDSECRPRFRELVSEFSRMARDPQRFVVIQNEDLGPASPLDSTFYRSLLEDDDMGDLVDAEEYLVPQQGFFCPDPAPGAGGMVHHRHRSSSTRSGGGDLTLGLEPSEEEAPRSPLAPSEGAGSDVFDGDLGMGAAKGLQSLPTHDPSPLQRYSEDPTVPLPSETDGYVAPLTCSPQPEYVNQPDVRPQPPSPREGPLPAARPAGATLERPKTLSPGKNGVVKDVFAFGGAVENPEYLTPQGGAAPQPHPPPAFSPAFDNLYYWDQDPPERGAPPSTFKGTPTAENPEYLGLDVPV
T3 sequence (P00533 25-1210): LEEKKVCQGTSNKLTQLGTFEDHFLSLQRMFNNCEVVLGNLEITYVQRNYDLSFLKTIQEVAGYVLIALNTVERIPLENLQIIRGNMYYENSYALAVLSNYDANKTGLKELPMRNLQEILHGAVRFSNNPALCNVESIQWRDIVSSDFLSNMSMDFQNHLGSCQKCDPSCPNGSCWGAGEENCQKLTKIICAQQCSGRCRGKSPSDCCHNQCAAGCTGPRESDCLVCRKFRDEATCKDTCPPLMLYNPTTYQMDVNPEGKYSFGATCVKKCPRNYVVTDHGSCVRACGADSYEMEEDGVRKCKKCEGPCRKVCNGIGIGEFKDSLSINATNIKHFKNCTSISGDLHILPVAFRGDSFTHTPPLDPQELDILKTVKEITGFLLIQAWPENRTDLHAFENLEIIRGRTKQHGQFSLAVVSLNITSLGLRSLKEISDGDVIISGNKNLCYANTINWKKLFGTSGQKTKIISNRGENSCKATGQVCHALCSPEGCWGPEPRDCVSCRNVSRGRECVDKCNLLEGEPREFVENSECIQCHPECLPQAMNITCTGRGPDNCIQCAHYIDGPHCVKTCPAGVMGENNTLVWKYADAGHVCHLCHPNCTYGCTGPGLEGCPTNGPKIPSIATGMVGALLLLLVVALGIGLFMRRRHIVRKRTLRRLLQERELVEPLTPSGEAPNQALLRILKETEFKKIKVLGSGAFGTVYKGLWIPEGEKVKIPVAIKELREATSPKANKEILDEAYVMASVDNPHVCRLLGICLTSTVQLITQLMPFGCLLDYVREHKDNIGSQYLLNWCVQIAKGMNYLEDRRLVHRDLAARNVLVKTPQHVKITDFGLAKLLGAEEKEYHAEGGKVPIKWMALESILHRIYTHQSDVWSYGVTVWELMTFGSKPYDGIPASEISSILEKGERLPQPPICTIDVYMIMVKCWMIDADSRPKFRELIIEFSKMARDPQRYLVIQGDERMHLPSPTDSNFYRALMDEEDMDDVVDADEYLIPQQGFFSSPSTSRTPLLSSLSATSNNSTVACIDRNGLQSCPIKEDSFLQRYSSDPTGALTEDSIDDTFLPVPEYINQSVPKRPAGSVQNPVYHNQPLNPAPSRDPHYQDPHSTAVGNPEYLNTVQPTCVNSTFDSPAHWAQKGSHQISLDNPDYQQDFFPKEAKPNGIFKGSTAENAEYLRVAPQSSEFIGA
T8 sequence (P42681 whole entry): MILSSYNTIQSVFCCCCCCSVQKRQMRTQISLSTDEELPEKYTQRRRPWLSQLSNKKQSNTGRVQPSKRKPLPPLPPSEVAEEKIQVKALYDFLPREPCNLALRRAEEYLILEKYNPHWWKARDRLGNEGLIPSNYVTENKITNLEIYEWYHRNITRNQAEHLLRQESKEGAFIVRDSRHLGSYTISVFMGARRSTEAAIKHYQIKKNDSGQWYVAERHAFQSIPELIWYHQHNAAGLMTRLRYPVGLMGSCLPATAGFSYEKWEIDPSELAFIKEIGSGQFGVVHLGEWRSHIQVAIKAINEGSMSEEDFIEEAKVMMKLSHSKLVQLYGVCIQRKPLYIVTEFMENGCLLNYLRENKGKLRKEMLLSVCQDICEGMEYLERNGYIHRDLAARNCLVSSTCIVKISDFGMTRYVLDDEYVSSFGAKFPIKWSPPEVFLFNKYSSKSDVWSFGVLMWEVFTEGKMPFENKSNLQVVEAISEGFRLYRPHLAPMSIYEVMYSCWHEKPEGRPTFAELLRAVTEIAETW

C=CC(=O)Nc1cc(Nc2cc(-c3cccc(NC(=O)c4cc5c(s4)CCCC5)c3C)cn(C)c2=O)ccc1N1CCN(CC)CC1 [CHMFL-BTK-85]
IC50 (BLK; read-out: IC50 against BLK): > 10 µM
selectivity over BLK (BLK; vs BTK): more than 1000 fold
IC50 (BMX; read-out: IC50 against BMX): 0.12 ± 0.0037 µM
selectivity over BMX (BMX; vs BTK): 10 fold
IC50 (EGFR; read-out: IC50 against EGFR): > 10 µM
selectivity over EGFR (EGFR; vs BTK): more than 1000 fold
IC50 (HER2; read-out: IC50 against HER2): > 10 µM
selectivity over HER2 (HER2; vs BTK): more than 1000 fold
IC50 (HER4; read-out: IC50 against HER4): > 10 µM
selectivity over HER4 (HER4; vs BTK): more than 1000 fold
IC50 (ITK; read-out: IC50 against ITK): > 10 µM
selectivity over ITK (ITK; vs BTK): more than 1000 fold
IC50 (JAK3): 2.72 ± 0.045 µM
IC50 (TXK): 3.313 ± 0.017 µM
Percent Control (ASK1): 86%
Percent Control (CDK3): 86%
Percent Control (CDKL1): 77%
Percent Control (CSNK1E): 95%
Percent Control (DRAK1): 97%
Percent Control (DYRK2): 98%
Percent Control (FLT3(D835Y)): 100%
Percent Control (GRK1): 84%
Percent Control (KIT(D816V)): 71%
Percent Control (KIT(V559D,T670I)): 100%
Percent Control (KIT-autoinhibited): 100%
Percent Control (MAP3K2): 100%
Percent Control (MEK1): 100%
Percent Control (NEK7): 96%
Percent Control (PRKCH): 93%
Percent Control (PYK2): 100%
Percent Control (SRC): 77%
Percent Control (STK35): 100%
Percent Control (TGFBR2): 100%
Percent Control (TLK1): 99%
Percent Control (WEE1): 100%
